≈ marks a conversion by molar mass, not a printed value.
Tests used:
[1] = Dispersion or dissolution in the hydrophilic gel setting; format: physicochemical; conditions: present experimental setting, hydrogel
Experimental: (§1) A 0.33% (w/v) Na-alginaat (Kelset), 0.66% (v/v) PEG400 gel solution was prepared in water, autoclaved and subsequently cooled to room temperature.
(§2) For the antibacterial assay the following components are mixed: 100 μl of bacterial cell suspension, 100 μl enzyme-substrate master solution (0.25%), 1 g (=1 ml) gel solution, 0.1-1 mg enhancing agent, 300 μl milliQ water. Final concentrations of the enzyme/substrate in the reaction mixture are 0.015 U/ml glucose oxidase, 0.011 U/ml lactoperoxidase, 0.00007% (w/v) potassium thiocyanate, 0.0001% (w/v) potassium iodide, 0.0076% glucose, and 0.066-0.66 mg/ml enhancing agent.

[2] = cited from earlier work
[3] = tested on: S. aureus; test: Antibacterial activity on S. aureus of oxidase/peroxidase with enhancing agents; format: cell-based, Staphylococcus aureus; conditions: for enhancing activity on glucose/peroxidase antibacterial activity: present experimental setting; for antibacterial activity of compositions with enhancing agent, substrate and enzyme: FIG. 2; for Enhancing effect on oxidase/peroxidase assay: antimicrobial effect; for bactericidal capacity when mixed with the enzyme-substrate solution / effect on cell survival of the separate systems: FIG. 1; for bactericidal capacity when mixed with the enzyme-substrate solution: enhancing agent and ES; for effect on cell survival of the separate systems: enhancing agent only
Experimental: Bacterial cells (S. aureus) were plated on Trypticase Soybean Agar plates (Becton Dickinson) and incubated overnight at 37° C. Cells were recovered from plates and mixed with NaCl-peptone broth buffer (Merck). The amount of medium is adjusted to give a bacterial suspension with a cell density of OD600=0.25 for bacteria.
For the examples described in the following examples, a fresh dilution of 0.25% (v/v) enzyme-substrate (Biovert™) stock solutions were prepared for each independent test. The Biovert™ enzyme stock solution contains 1527 U/ml lactoperoxidase; 2016 U/ml glucose oxidase; the Biovert™ substrate stock solution comprises: 55% (w/v) glucose, 0.51% (w/v) KSCN, 0.73% (w/v) KI.
In order to assess the synergistic action of the enhancing agent on the enzyme-substrate enhancing agent, the concentration of enzyme-substrate was adjusted to obtain conditions wherein the oxidase/peroxidase in a hydrogel performs limited but measurable antibacterial activity. The above mentioned (0.25% (v/v)) solution has accordingly been further diluted to 0.017% (v/v).
as §1, §2

[4] = Beta-carotene assay; conditions: for Antioxidant properties: Beta-carotene assay: 5 mMole/liter in 1-octanol; for antioxidant performance in the beta carotene bleaching assay: FIG. 3
Experimental: In this assay, the antioxidant activity of a component is assessed by its ability to prevent bleaching of a beta-carotene solution by radicals formed upon illumination.
A beta-carotene solution (20 mg/ml) was prepared freshly in 1-octanol (Sigma) and 900 μl aliquots were transferred to 2 ml spectrophotometer cuvettes. 100 μl of 50 mMole/liter solutions of enhancing agents of the invention (dissolved in 1-octanol) were added to the solution (final concentration of the enhancing agents is 5 mMole/liter). The solutions were illuminated for up to 5 hours and spectrophotometric analysis was carried out at indicated time points.

[5] = DPPH-radical bleaching assay; conditions: for Antioxidant properties: DPPH assay: 5 mMole/liter in 1-octanol; for potency as reducer / antioxidant efficiency: FIG. 4
Experimental: DPPH (1,1-DiPhenyl-2-PicrylHydrazyl) is a cell-permeable, stable free radical that acts as a hydrogen radical scavenger, and is used as a screening tool for detecting free radical scavenging activity of antioxidants. When a radical solution is brought into contact with an antioxidant, the radical-molecule is reduced and thereby looses its characteristic purple colour. This “bleaching” can be monitored by spectrophotometric analysis.
A DPPH-radical solution (15 mg/ml) was prepared freshly in 1-octanol (Sigma) and 900 μl aliquots were transferred to 2 ml spectrophotometer cuvettes. 100 μl of 50 mMole/liter solutions of enhancing agents (dissolved in 1-octanol) were added to the solution (final concentration of the enhancing agents is 5 mMole/liter). Spectrophotometric analysis of the samples was carried out within 5 minutes, in order to prevent quenching caused by free (e.g. air born) radicals.

[6] = tested on: MRSA (methicillin resistant S. aureus) bacteria; test: Antibacterial activity on MRSA of oxidase/peroxidase with enhancing agents; format: cell-based, Staphylococcus aureus; conditions: for enhancing effect on the peroxidase/oxidase activity / antibacterial effect of compound alone: FIG. 5; for enhancing effect on the peroxidase/oxidase activity: ES + enhancing agent; for antibacterial effect of compound alone: enhancing agent alone
Experimental: The effect of vanillin and guaiacol on the peroxidase/oxidase activity was assayed on MRSA (methicillin resistant S. aureus) bacteria using growth conditions and assay conditions as described in example 1.

[7] = tested on: E. coli; test: Antibacterial activity on E. coli of enhancing agents and oxidase/peroxidase; format: cell-based, Escherichia coli; conditions: FIG. 7; 6 hours of incubation
Experimental: Experiments using the conditions described in Example 1 and 2 were performed with Gram-negative bacteria (E. coli).

[8] = tested on: Candida albicans; test: Growth retardation of Candida albicans in SD broth with enzyme/substrate system; format: cell-based; conditions: FIG. 9; 0.02% dilution of enzyme/substrate
Experimental: A yeast cell culture (A600=0.05) was grown in Sabouraud Dextrose (SD) broth (Difco™, Becton Dickinson) in the presence of a 0.02% dilution (suboptimal concentration) of the enzyme/substrate system described in example 1.

[9] = tested on: mouse 3T3 fibroblast cells; test: Cell toxicity (MTT) of oxidase/peroxidase alginate gel with guaiacol; format: cell-based; conditions: 200 μM guaiacol in gel, diluted 1 g in 9 ml, 24 hours; p=0.32
Experimental: (§3) HaCat keratinocytes cells and mouse 3T3 fibroblast cells were grown in the following growth medium: DMEM medium (high glucose; Sigma) supplemented with heat inactivated calf serum (10%) (Life Technologies), L-glutamine (4 mM) (Sigma) and Streptomycin/Penicillin (100 U) (Sigma). […] As a control an identical gel without guaiacol was prepared. One gram of the alginate gel was dissolved in 9 ml growth medium (diluted alginate gel). Cells were seeded at subconfluency. After overnight incubation at 37° C., 5% CO2, growth medium was replaced by diluted alginate gel and the cells were incubated at 37° C., 5% CO2 for another 24 hours. […] Cells were incubated in this MTT-medium for an additional 3 h. Cell viability and metabolism was assayed by determining the chromophoric conversion product of MMT at 570 nm.

[10] = tested on: HaCat keratinocytes cells; test: as above; format: cell-based; conditions: 200 μM guaiacol in gel, diluted 1 g in 9 ml, 24 hours; p=0.31
Experimental: as §3

[11] = tested on: MRSA (Methicillin-Resistant Staphylococcus aureus); test: Growth retardation of MRSA in TS broth with enzyme/substrate system; format: cell-based; conditions: FIG. 8; 0.08% dilution of enzyme/substrate
Experimental: A bacterial cell culture (A600=0.02) was grown in Tryptic Soy (TS) broth (Difco™, Becton Dickinson) in the presence of a 0.08% dilution (suboptimal concentration) of the enzyme/substrate system described in example 1. […] (see FIG. 8). It is observed that this effect is maintained for a significant time period.

Compound	Solubility in water [2]	Antioxidant properties: Beta-carotene assay [4]	Enhancing effect on oxidase/peroxidase assay [3]	Antioxidant properties: DPPH assay [5]	also measured
COc1cc(C=O)cc(OC)c1O [syringaldehyde]					dispersion or dissolution in hydrophilic media [1]: could not be properly dispersed or dissolved
COc1cc(O)ccc1O [Methoxyhydroquinone, 2-methoxybenzene-1,4-diol]	33000 µg/mL (≈ 235 mM)				
CCOc1cc(C=O)ccc1O [Quantrovanil, 3-ethoxy-4-hydroxy-benzaldehyde]	280 µg/mL (≈ 1.68 mM)				
COc1cccc(O)c1 [m-Guaiacol, 3-methoxyphenol]	500 µg/mL (≈ 4.03 mM)				
N[C@@H](Cc1c[nH]c2ccc(O)cc12)C(=O)O [5-hydroxy-tryptophane, reference compound]					enhancing activity on glucose/peroxidase antibacterial activity [3]: did not show an enhancing activity
N[C@@H](Cc1ccc(O)cc1)C(=O)O [tyrosine, reference compound]					enhancing activity on glucose/peroxidase antibacterial activity [3]: did not show an enhancing activity
O=Cc1ccc(O)c(O)c1 [3,4 dihydroxybenzaldehyde, reference compound]					antibacterial activity of compositions with enhancing agent, substrate and enzyme [3]: less pronounced
COc1cc(C(C)=O)ccc1O [Apocynin, 1-(4-hydroxy-3-methoxy-phenyl)ethanone]	500 µg/mL (≈ 3.01 mM)				
COc1cccc(C=O)c1O [o-vanillin, 2-hydroxy-3-methoxy-benzaldehyde]	500 µg/mL (≈ 3.29 mM)				
COc1cc(C(=O)O)ccc1O [Vanillic acid, 4-hydroxy-3-methoxy-benzoic acid]		±	+		
Cc1cc(C(C)(C)C)c(O)c(C(C)(C)C)c1 [BHT, di-tert-butylated hydroxytoluene, reference compound]		+++	+	++	potency as reducer / antioxidant efficiency [5]: less potent reducers than gallic acid and propyl gallate
O=C(O)c1cc(O)c(O)c(O)c1 [Gallic acid, reference compound]		+++	+	+++	antibacterial activity of compositions with enhancing agent, substrate and enzyme [3]: less pronounced
CCCOC(=O)c1cc(O)c(O)c(O)c1 [Propylgallate, propyl gallate, reference compound]		+++	±	+++	antibacterial activity of compositions with enhancing agent, substrate and enzyme [3]: less pronounced
COc1cc(C=O)ccc1O [Vanillin, 4-hydroxy-3-methoxy-benzaldehyde]		−	+	−	enhancing effect on the peroxidase/oxidase activity [6]: enhancing effect; antibacterial effect of compound alone [6]: limited effect; antioxidant performance in the beta carotene bleaching assay [4]: performed poorly; antibacterial effectiveness in combination with the enzyme-substrate [7]: more effective than enzyme-substrate alone; bactericidal capacity when mixed with the enzyme-substrate solution [3]: markedly enhanced the bactericidal capacity; effect on cell survival of the separate systems [3]: only moderately affected cell survival; potency as reducer / antioxidant efficiency [5]: performed poorly; suppression of fungal growth on addition to enzyme/substrate system [8]: additional suppression of the fungal growth
Vitamin E [reference compound]		+	−	+	potency as reducer / antioxidant efficiency [5]: less potent reducers than gallic acid and propyl gallate
CCOc1cc(C=O)ccc1O [Ethylvanillin, 3-ethoxy-4-hydroxy-benzaldehyde]			+		bactericidal capacity when mixed with the enzyme-substrate solution [3]: markedly enhanced the bactericidal capacity; effect on cell survival of the separate systems [3]: only moderately affected cell survival
COc1ccccc1O [Guaiacol, 2-methoxyphenol]		++	+	+++	metabolic activity of cells (MTT), alginate hydrogel with versus without guaiacol [9]: no statistical difference; metabolic activity of cells (MTT), alginate hydrogel with versus without guaiacol [10]: no statistical difference; enhancing effect on the peroxidase/oxidase activity [6]: enhancing effect; antibacterial effect of compound alone [6]: limited effect; enhancing effect on peroxidase/oxidase activity ([6]; FIG. 6, different concentrations of guaiacol): significant enhancing effect; antioxidant performance in the beta carotene bleaching assay [4]: very effective; suppression of bacterial growth on addition to enzyme/substrate system [11]: additional suppression of the bacterial growth; antibacterial effectiveness in combination with the enzyme-substrate [7]: more effective than enzyme-substrate alone; bactericidal capacity when mixed with the enzyme-substrate solution [3]: markedly enhanced the bactericidal capacity; effect on cell survival of the separate systems [3]: only moderately affected cell survival; potency as reducer / antioxidant efficiency [5]: nearly as efficient as gallic acid and propyl gallate; suppression of fungal growth on addition to enzyme/substrate system [8]: additional suppression of the fungal growth
COc1ccc(C=O)cc1O [Isovanilline, 3-hydroxy-4-methoxy-benzaldehyde]	11000 µg/mL (≈ 72.3 mM)	±	−	−	antibacterial activity of compositions with enhancing agent, substrate and enzyme [3]: less pronounced
CCOc1ccccc1O [Guaiethol, 2-ethoxyphenol]	3100 µg/mL (≈ 22.4 mM)	++	+	+++	antioxidant performance in the beta carotene bleaching assay [4]: very effective; potency as reducer / antioxidant efficiency [5]: nearly as efficient as gallic acid and propyl gallate
